Read-outs that look alike come from different tables or passages of the source.
Tests used:
[1] = molecular target: T1, PAR4 (Homo sapiens, UniProt Q96RI0); assay: Human platelet activity assay, flow cytometry, γ-thrombin activation; type: cell-based; design: endogenous in cells; host or cells: washed human platelets from healthy volunteers
T1 sequence (Q96RI0 18-385): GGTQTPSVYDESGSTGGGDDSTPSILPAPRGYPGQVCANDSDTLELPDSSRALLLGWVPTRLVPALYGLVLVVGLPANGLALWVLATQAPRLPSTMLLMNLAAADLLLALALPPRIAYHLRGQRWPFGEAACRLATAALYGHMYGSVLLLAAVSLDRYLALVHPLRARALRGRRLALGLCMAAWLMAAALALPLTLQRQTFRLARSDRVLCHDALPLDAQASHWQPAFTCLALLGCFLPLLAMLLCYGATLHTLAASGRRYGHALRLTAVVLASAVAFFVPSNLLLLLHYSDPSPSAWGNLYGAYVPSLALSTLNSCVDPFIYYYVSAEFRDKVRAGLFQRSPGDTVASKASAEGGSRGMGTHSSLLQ
Experimental: To test the antagonistic effect of the compounds on PAR4, a flow cytometry assay of human platelets was employed. Each compound was screened at 10 μM in human platelets using flow cytometry for GPIIbIIIa activation (PAC1) and P-selectin (CD62p) expression as previously described.[4] Activation of GPIIbIIIa allows interaction with divalent fibrinogen or multivalent von Willebrand factor, leading to platelet aggregation.[41] PAR4 stimulation also triggers α-granule secretion containing P-selectin.[5] […] Platelets were treated with each test compound or vehicle control DMSO before activating with γ-thrombin (100 nM) or PAR4 agonist peptide mimetic (200 μM, “PAR4-AP” AYPGKF) for 30 min. γ-thrombin activates PAR4 but not PAR1.[42]
Activation of washed human platelets was monitored by flow cytometry for the detection of PAC1 (GPIIbIIIa activation) and CD62p (P-selectin expression) binding as previously described.[4] Human platelets were obtained from healthy volunteers. The Vanderbilt University Internal Review Board approved these studies. Informed consent was obtained from all individuals prior to the blood draw. 10 mL of whole blood was collected into 0.32% Na citrate. Platelet-rich plasma was collected after room-temperature centrifugation at 1100 rpm for 15 min on a Thermo Forma 400 centrifuge (Thermo Fisher, Waltham, MA). 1/10 volume of acid citrate dextrose (ACD) buffer was added to the collected supernatant and incubated for 10 min. After centrifugation at 2400 rpm for 10 min, the platelet pellet was resuspended in 1 mL Tyrode’s buffer (“TBB”: 15 mM HEPES, 0.33 mM NaH2PO4, pH 6.4, 138 mM NaCl, 2.7 mM KCl, 1 mM MgCl2, 5.5 mM dextrose, 0.1% bovine serum albumin). Platelets were collected, counted on a Z1 Coulter Particle Counter (Beckman Coulter, Brea, CA), and diluted in TBB to 1.5 × 10^7 platelets/mL. 60 uL of platelets were aliquoted to each tube and preincubated with 40 μL of TBB with antibodies PAC1 FITC (Becton Dickinson, Franklin Lakes NJ) and P-selectin PE (Becton Dickinson) and either test compound antagonist or DMSO vehicle control for 20 min. Platelets were then activated with 100 nM γ-thrombin or other agonists for 30 min. Samples were then fixed by adding 100 μL of 2% paraformaldehyde. After 30 min, samples were diluted by adding 300 μL of phosphate-buffered saline (PBS) and stored at 4C. Data were collected on a three-laser BD LSRFortessa (Becton Dickinson) and analyzed with FlowJo software (FlowJo LLC, Ashland, OR). The mean fluorescence intensity (geometric) of PE and FITC was determined from 30,000 events after compensation correction. Data were normalized to vehicle (DMSO) controls.
Compounds were screened for inhibition activity against human PAR4 using 100 nM γ-thrombin or 200 μM PAR4-AP in a single-point assay (10 μM test compound).

[2] = Plasma protein binding, mouse plasma; type: in vitro ADME; conditions: pH 7.4, read-out: mouse PPB fu
Experimental: The protein binding of each compound was determined in mouse plasma via equilibrium dialysis employing single-use RED plates with inserts (Thermo Fisher Scientific, Rochester, NY). Plasma (220 μL) was added to a 96-well plate containing test compound (5 μL) and mixed thoroughly. Subsequently, 200 μL of the plasma–compound mixture was transferred to the cis chamber (red) of the RED plate with an accompanying 350 μL of phosphate buffer (25 mM, pH 7.4) in the trans chamber. The RED plate was sealed and incubated for 4 h at 37 °C with shaking. At completion, 50 μL aliquots from each chamber were diluted 1:1 (50 μL) with either plasma (cis) or buffer (trans) and transferred to a new 96-well plate, at which time ice-cold acetonitrile (2 volumes) was added to extract the matrices. The plate was centrifuged (3000 rpm, 10 min), and supernatants were transferred and diluted 1:1 (supernatant: water) into a new 96-well plate, which was then sealed in preparation for LC/MS/MS analysis. Each compound was assayed in triplicate within the same 96-well plate.
The analysis of in vitro samples from microsomal stability or plasma protein binding experiments was determined by employing LCMS/MS with an electrospray ionization-enabled 5500 Sciex instrument (Sciex, Foster City, CA) that was coupled to Agilent HPLC pumps and an autosampler (Agilent Technologies, Santa Clara, CA). Analytes were separated by gradient elution using a Kinetex C18 column (2.1 mm × 50 mm, 5 μm; Phenomenex, Torrance, CA) warmed to 35 °C. Mobile phase A was 0.5% formic acid in water, and mobile phase B was 0.5% formic acid in acetonitrile. […] The total run time was 2.8 min, and the HPLC flow rate was 0.5 mL/min. […] Data were analyzed using OS Sciex Analyst 1.5.1 (SCIEX, Framingham, MA), Graphpad Prism 10.1.0 (GraphPad Software, Boston, Massachusetts), and Microsoft Excel version 2310 (Microsoft, Redmond, WA).

[3] = human platelets, 100 nM γ-thrombin, GPIIbIIIa activation (PAC1), read-out: Human Platelets PAC1 IC50
[4] = human platelets, 100 nM γ-thrombin, P-selectin (CD62p), read-out: Human Platelets P-Sel IC50
[5] = Table 4 summary, read-out: human PAR4 IC50

SMILES | IC50 [1, 3] | IC50 [1, 4] | IC50 [1, 5] | fraction unbound at 4 h [2] | inhibition at 10 µM ([1]; 10 μM compound, 100 nM γ-thrombin, human platelets, read-out: inhibition of platelet activation against γ-thrombin) | IC50 ([1]; γ-thrombin activation of PAR4, human platelets, read-out: IC50, concentration-response curve (CRC))
Cc1nc(NC(=O)c2cc(-c3ccccc3)n(-c3ccccc3)n2)n[nH]1 [Compound 7] | 2280 nM | 2730 nM | – | – | ~50% | 2300 nM
Cn1nc(C(=O)Nc2n[nH]c(-c3c(F)cccc3F)n2)cc1C1CC1 [Compound 12] | 134 nM | 150 nM | 134 nM | 0.169 | – | –
O=C(Nc1nc[nH]n1)c1nn(-c2ccccc2)c2c1CCC2 [Compound 17] | 502 nM | 599 nM | 502 nM | 0.006 | – | –
Cc1cc(C(=O)Nc2n[nH]c(OC(F)F)n2)nn1-c1ccccc1 [Compound 9] | 583 nM | 629 nM | 583 nM | – | – | –

More lines, main results first:

IC50 [1, 3] | IC50 [1, 4] | IC50 [1, 5] | fraction unbound at 4 h [2] | SMILES | inhibition at 10 µM ([1]; 10 μM compound, 100 nM γ-thrombin, human platelets, read-out: inhibition of platelet activation against γ-thrombin) | IC50 ([1]; γ-thrombin activation of PAR4, human platelets, read-out: IC50, concentration-response curve (CRC))
120 nM | 178 nM | 120 nM | – | COc1cccc(-c2nc(NC(=O)c3nn(-c4ccccc4)c4c3CCCC4)n[nH]2)c1 [Compound 32] | – | –
117 nM | 135 nM | – | 0.044 | O=C(Nc1n[nH]c(-c2ccc(F)cc2F)n1)c1nn(-c2ccccc2)c2c1CCCC2 [Compound 31] | – | –
